From patent US6908919B2, “Substituted polycyclic aryl and heteroaryl pyrazinones useful for selective inhibition of the coagulation cascade” (Pharmacia Corporation, priority 1999, dated 2005)
Read-outs that look alike come from different tables or passages of the source.

Key:
[1] = target: Human factor Xa (Homo sapiens, UniProt P00742); experiment: Xa Assay; assay type: biochemical; design: purchased Enzyme Research Laboratories, South Bend Ind
[2] = target: T1, recombinant soluble tissue factor and recombinant human factor VIIa (TF-VIIa) (Homo sapiens, UniProt P08709); experiment: TF-VIIa Assay; assay type: biochemical; details: for IC50: read-out: IC50 TF-VIIa
T1 construct: conversion of coagulation factor VII to VIIa by Xa; purchased American Diagnostica, Greenwich Conn; host or cells: VIIa purchased; soluble TF made in house in E. coli
T1 sequence (P08709 61-212 limits assumed): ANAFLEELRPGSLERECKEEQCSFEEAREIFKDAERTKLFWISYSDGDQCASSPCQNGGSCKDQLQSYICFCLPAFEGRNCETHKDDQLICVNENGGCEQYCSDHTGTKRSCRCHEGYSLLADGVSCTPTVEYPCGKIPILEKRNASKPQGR
T1 sequence (P08709 213-466 limits assumed): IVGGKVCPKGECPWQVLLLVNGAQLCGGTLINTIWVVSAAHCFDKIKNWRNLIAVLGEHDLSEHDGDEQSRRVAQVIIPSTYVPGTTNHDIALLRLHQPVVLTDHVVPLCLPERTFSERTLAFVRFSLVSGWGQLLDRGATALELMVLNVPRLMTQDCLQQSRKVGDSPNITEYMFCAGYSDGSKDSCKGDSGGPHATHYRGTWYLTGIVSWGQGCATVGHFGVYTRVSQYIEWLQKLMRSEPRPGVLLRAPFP
T1 sequence (P13726 33-251 partner limits assumed): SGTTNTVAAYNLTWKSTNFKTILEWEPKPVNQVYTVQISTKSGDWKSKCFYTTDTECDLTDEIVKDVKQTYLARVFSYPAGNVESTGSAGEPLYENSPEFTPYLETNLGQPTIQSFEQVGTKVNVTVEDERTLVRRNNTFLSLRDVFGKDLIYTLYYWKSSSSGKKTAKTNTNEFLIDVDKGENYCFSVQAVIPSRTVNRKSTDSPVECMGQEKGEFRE

Sequence of Human factor Xa (P00742 41-179 limits assumed): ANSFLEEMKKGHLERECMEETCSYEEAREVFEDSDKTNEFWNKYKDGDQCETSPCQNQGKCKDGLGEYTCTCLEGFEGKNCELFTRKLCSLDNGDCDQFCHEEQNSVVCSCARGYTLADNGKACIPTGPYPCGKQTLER
Sequence of Human factor Xa (P00742 235-488 limits assumed): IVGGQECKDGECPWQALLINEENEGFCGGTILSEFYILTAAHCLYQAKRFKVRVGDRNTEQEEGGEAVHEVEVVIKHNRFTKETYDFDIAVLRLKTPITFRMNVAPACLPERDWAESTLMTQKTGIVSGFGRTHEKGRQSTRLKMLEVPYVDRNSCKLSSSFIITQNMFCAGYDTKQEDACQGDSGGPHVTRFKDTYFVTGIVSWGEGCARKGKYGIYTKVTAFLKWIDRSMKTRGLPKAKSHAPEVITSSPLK

| Structure (SMILES) | % Inhibition Factor Xa (100 µM) ([1]; inhibitor at 100 µM) | % Inhibition TF-VIIa (100 µM) ([2]; inhibitor at 100 µM) | further results |
| --- | --- | --- | --- |
| COc1ccc(-c2c(Cl)nc(NCCc3cccc(Cl)c3)c(=O)n2CC(=O)NCCc2cccnc2)cc1 [Example E-0104] | 5% | 3% | – |
| CC(C)Nc1nc(Cl)c(-c2cc(N)cc(C(=O)NCc3ccccc3)c2)n(CC(=O)NCc2ccc(C(=N)N)cc2)c1=O [Example 128-9] | – | – | inhibition at 100 µM ([1]; at 100 μM inhibitor): 36%; IC50 [2]: 7 nM |
| COc1ccc(-c2c(Cl)nc(NCCN3CCOCC3)c(=O)n2CC(=O)NCCc2ccncc2)cc1 [Example E-0039] | 1% | 0% | – |
| Cc1cccc(Cl)c1CNc1nc(Cl)c(-c2ccccc2)n(CC(=O)NCc2ccc(C(=N)N)cc2)c1=O [1512-31] | – | – | % Inhibition Factor Xa (30 µM) ([1]; at 30 µM inhibitor): 14%; % Inhibition TF-VIIa (30 µM) ([2]; at 30 µM inhibitor): 43% |
| O=C(Cn1c(-c2cccc(Cl)c2)c(Cl)nc(NCc2ccccc2)c1=O)NCCc1cccnc1 [Example E-0086] | 4% | 0% | – |
| O=C(Cn1c(-c2ccc(-c3ccccc3)cc2)c(Cl)nc(NCc2ccccc2)c1=O)NCCc1cccnc1 [Example E-0110] | – | – | % Inhibition Factor Xa (100 µM) [1]: 3%; % Inhibition TF-VIIa (100 µM) [2]: 0% |
| N=C(N)c1ccc(CNC(=O)Cn2c(-c3ccc(-c4ccccc4)cc3)c(Cl)nc(NCCc3cccnc3)c2=O)cc1 [1471-72] | – | – | % Inhibition Factor Xa (30 µM) ([1]; at 30 µM inhibitor): 22%; % Inhibition TF-VIIa (30 µM) ([2]; at 30 µM inhibitor): 15% |
| O=C(Cn1c(-c2cccc(Cl)c2)c(Cl)nc(NCCc2cccc(Cl)c2)c1=O)NCCc1ccncc1 [Example E-0079] | 4% | 0% | – |
| COc1ccc(-c2c(Cl)nc(NCCc3ccncc3)c(=O)n2CC(=O)NCc2ccc(C(=N)N)cc2)cc1 [1471-37] | – | – | % Inhibition Factor Xa (30 µM) ([1]; at 30 µM inhibitor): 7%; % Inhibition TF-VIIa (30 µM) ([2]; at 30 µM inhibitor): 39% |
| O=C(Cn1c(Cc2ccccc2)c(Cl)nc(NCCc2ccc(Cl)cc2)c1=O)NCCc1ccncc1 [Example E-0060] | 0% | 0% | – |
| O=C(Cn1c(-c2ccc(-c3ccccc3)cc2)c(Cl)nc(NCc2ccccc2)c1=O)NCCc1ccncc1 [Example E-0049] | – | – | % Inhibition Factor Xa (100 µM) [1]: 0%; % Inhibition TF-VIIa (100 µM) [2]: 2% |
| O=C(Cn1c(-c2ccccc2)c(Cl)nc(NCc2ccccc2)c1=O)NCCc1ccncc1 [Example E-0009] | 1% | 0% | – |
| CC(C)CNC(=O)c1cc(N)cc(-c2c(Cl)nc(NC(C)C)c(=O)n2CC(=O)NCc2ccc(C(=N)N)cc2)c1 [Example 128-14] | – | – | inhibition at 100 µM ([1]; at 100 μM inhibitor): 24%; IC50 [2]: 7.4 nM |
| O=C(Cn1c(-c2cccc(Cl)c2)c(Cl)nc(NCCc2cccc(Cl)c2)c1=O)NCCc1cccnc1 [Example E-0080] | 4% | 1% | – |
| O=C(Cn1c(-c2ccc(-c3ccccc3)cc2)c(Cl)nc(NCCc2ccccc2)c1=O)NCCc1ccncc1 [Example E-0112] | – | – | % Inhibition Factor Xa (100 µM) [1]: 1%; % Inhibition TF-VIIa (100 µM) [2]: 11% |
| CC(C)Nc1nc(Cl)c(-c2cc(N)cc(C(=O)N(C)Cc3ccccc3)c2)n(CC(=O)NCc2ccc(C(=N)N)cc2)c1=O [Example 128-2] | – | – | inhibition at 100 µM ([1]; at 100 μM inhibitor): 41%; IC50 [2]: 25.6 nM |
| N=C(N)c1ccc(CNC(=O)Cn2c(-c3ccc4c(c3)OCO4)c(Cl)nc(NCCN3CCOCC3)c2=O)cc1 [1471-44] | – | – | % Inhibition Factor Xa (30 µM) ([1]; at 30 µM inhibitor): 13%; % Inhibition TF-VIIa (30 µM) ([2]; at 30 µM inhibitor): 34% |
| N=C(N)c1ccc(CNC(=O)Cn2c(-c3ccccc3)c(Cl)nc(NCc3c(F)cccc3C(F)(F)F)c2=O)cc1 [1512-44] | – | – | % Inhibition Factor Xa (30 µM) ([1]; at 30 µM inhibitor): 6%; % Inhibition TF-VIIa (30 µM) ([2]; at 30 µM inhibitor): 43% |
| COc1ccc(CCNC(=O)c2cc(N)cc(-c3c(Cl)nc(NC(C)C)c(=O)n3CC(=O)NCc3ccc(C(=N)N)cc3)c2)cc1 [Example 128-20] | – | – | inhibition at 100 µM ([1]; at 100 μM inhibitor): 39%; IC50 [2]: 33 nM |
| CC(C)Nc1nc(Cl)c(-c2cc(N)cc(C(=O)NCc3ccc(C(C)(C)C)cc3)c2)n(CC(=O)NCc2ccc(C(=N)N)cc2)c1=O [Example 128-7] | – | – | inhibition at 100 µM ([1]; at 100 μM inhibitor): 40%; IC50 [2]: 242 nM |

| Structure (SMILES) | % Inhibition Factor Xa (100 µM) ([1]; inhibitor at 100 µM) | % Inhibition TF-VIIa (100 µM) ([2]; inhibitor at 100 µM) | further results |
| --- | --- | --- | --- |
| N=C(N)c1ccc(CNC(=O)C(Cc2ccccc2)n2c(-c3ccccc3)c(Cl)nc(NCCc3ccccc3)c2=O)cc1 (stereo not shown) [Example 1517-14] | – | – | % Inhibition Factor Xa (30 µM) ([1]; at 30 µM): 0%; % Inhibition TF-VIIa (30 µM) ([2]; at 30 µM): 30% |
| O=C(Cn1c(-c2ccccc2)c(Cl)nc(NCCc2ccncc2)c1=O)NCCc1ccncc1 [Example E-0014] | 0% | 0% | – |
| O=C(Cn1c(-c2ccc(Cl)cc2)c(Cl)nc(NCCc2ccncc2)c1=O)NCCc1ccncc1 [Example E-0030] | 0% | 0% | – |
| O=C(Cn1c(-c2ccc(Cl)cc2)c(Cl)nc(NCCN2CCOCC2)c1=O)NCCc1ccncc1 [Example E-0023] | 0% | 0% | – |
| N=C(N)c1ccc(CNC(=O)Cn2c(-c3ccc(Cl)cc3)c(Cl)nc(NCCN3CCOCC3)c2=O)cc1 [1471-20] | – | – | % Inhibition Factor Xa (30 µM) ([1]; at 30 µM inhibitor): 34%; % Inhibition TF-VIIa (30 µM) ([2]; at 30 µM inhibitor): 42% |
| N=C(N)c1ccc(C(=O)NCCn2c(-c3cccc(N)c3)c(Cl)nc(NC3CCC3)c2=O)cc1 [Example 136] | – | – | inhibition at 100 µM ([1]; at 100 μM inhibitor): 15%; IC50 [2]: 10700 nM |
| O=C(Cn1c(CCc2ccccc2)c(Cl)nc(NCCc2ccc(Cl)cc2)c1=O)NCCc1ccncc1 [Example E-0068] | 0% | 0% | – |
| O=C(Cn1c(-c2ccc3c(c2)OCO3)c(Cl)nc(NCc2ccncc2)c1=O)NCCc1ccncc1 [Example E-0048] | 0% | 0% | – |
| N=C(N)c1ccc(CNC(=O)Cn2c(-c3ccc(Cl)cc3)c(Cl)nc(NCc3ccncc3)c2=O)cc1 [1471-19] | – | – | % Inhibition Factor Xa (30 µM) ([1]; at 30 µM inhibitor): 26%; % Inhibition TF-VIIa (30 µM) ([2]; at 30 µM inhibitor): 33% |
| O=C(Cn1c(Cc2ccccc2)c(Cl)nc(NCc2ccccc2)c1=O)NCCc1ccncc1 [Example E-0057] | 6% | 0% | – |
| O=C(Cn1c(-c2ccc(-c3ccccc3)cc2)c(Cl)nc(NCCc2ccc(Cl)cc2)c1=O)NCCc1ccncc1 [Example E-0118] | – | – | % Inhibition Factor Xa (100 µM) [1]: 3%; % Inhibition TF-VIIa (100 µM) [2]: 12% |
| O=C(Cn1c(CCc2ccccc2)c(Cl)nc(NCCN2CCOCC2)c1=O)NCCc1ccncc1 [Example E-0071] | 0% | 0% | – |
| O=C(Cn1c(-c2cccc(Cl)c2)c(Cl)nc(NCc2ccccc2)c1=O)NCCc1cccnc1 [Example E-0074] | 0% | 0% | – |
| COc1ccc(-c2c(Cl)nc(NCc3ccccc3)c(=O)n2CC(=O)NCCc2cccnc2)cc1 [Example E-0098] | 2% | 0% | – |
| CC(C)Nc1nc(Cl)c(-c2cc(N)cc(C(=O)NCc3ccc(Br)cc3)c2)n(CC(=O)NCc2ccc(C(=N)N)cc2)c1=O [Example 128-8] | – | – | % Inhibition Factor Xa at 100 μM ([1]; at 100 μM inhibitor): 44% at 100 μM; IC50 [2]: 67 nM |
| O=C(Cn1c(-c2ccc(Cl)cc2)c(Cl)nc(NCCc2cccnc2)c1=O)NCCc1ccncc1 [Example E-0029] | 0% | 0% | – |
| Cc1c(Cl)nc(NCCc2ccccc2)c(=O)n1CC(=O)NCCc1ccncc1 [Example E-0002] | 0% | 0% | – |
| O=C(Cn1c(-c2ccccc2)c(Cl)nc(NCc2ccncc2)c1=O)NCCc1ccncc1 [Example E-0016] | 0% | 0% | – |
| CC(C)Nc1nc(Cl)c(-c2cc(N)cc(C(=O)NCCCc3ccccc3)c2)n(CC(=O)NCc2ccc(C(=N)N)cc2)c1=O [Example 128-21] | – | – | IC50 [2]: 37 nM |

Further lines, with some results ahead:

| % Inhibition Factor Xa (100 µM) ([1]; inhibitor at 100 µM) | % Inhibition TF-VIIa (100 µM) ([2]; inhibitor at 100 µM) | Structure (SMILES) | further results |
| --- | --- | --- | --- |
| 0% | 0% | O=C(Cn1c(-c2ccccc2)c(Cl)nc(NCCc2cccnc2)c1=O)NCCc1ccncc1 [Example E-0013] | – |
| 0% | 0% | O=C(Cn1c(CCc2ccccc2)c(Cl)nc(NCCc2ccncc2)c1=O)NCCc1ccncc1 [Example E-0070] | – |
| 0% | 0% | O=C(Cn1c(-c2ccc(Cl)cc2)c(Cl)nc(NCCc2cccc(Cl)c2)c1=O)NCCc1ccncc1 [Example E-0019] | – |
| 0% | 0% | Cc1c(Cl)nc(NCCc2cccnc2)c(=O)n1CC(=O)NCCc1ccncc1 [Example E-0005] | – |
| 4% | 1% | O=C(Cn1c(-c2cccc(Cl)c2)c(Cl)nc(NCCc2cccc(Cl)c2)c1=O)NCCc1ccncc1 [Example E-0091] | – |
| 0% | 0% | O=C(Cn1c(-c2ccc3c(c2)OCO3)c(Cl)nc(NCCN2CCOCC2)c1=O)NCCc1ccncc1 [Example E-0047] | – |
| 3% | 2% | O=C(Cn1c(-c2cccc(Cl)c2)c(Cl)nc(NCCc2ccc(Cl)cc2)c1=O)NCCc1cccnc1 [Example E-0083] | – |
| 0% | 0% | O=C(Cn1c(-c2ccc(Cl)cc2)c(Cl)nc(NCCc2ccncc2)c1=O)NCCc1ccncc1 [Example E-0022] | – |
| 0% | 0% | O=C(Cn1c(Cc2ccccc2)c(Cl)nc(NCCc2cccc(Cl)c2)c1=O)NCCc1ccncc1 [Example E-0059] | – |
| 2% | 2% | O=C(Cn1c(-c2cccc(Cl)c2)c(Cl)nc(NCCc2ccc(Cl)cc2)c1=O)NCCc1ccncc1 [Example E-0094] | – |
| 0% | 0% | O=C(Cn1c(-c2ccc3c(c2)OCO3)c(Cl)nc(NCCc2cccnc2)c1=O)NCCc1ccncc1 [Example E-0045] | – |
| 0% | 0% | O=C(Cn1c(-c2ccc(Cl)cc2)c(Cl)nc(NCc2ccncc2)c1=O)NCCc1ccncc1 [Example E-0032] | – |
| 0% | 0% | O=C(Cn1c(CCc2ccccc2)c(Cl)nc(NCc2ccccc2)c1=O)NCCc1ccncc1 [Example E-0065] | – |
